From PubChem BioAssay (NCI)
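Assay format: 96-well plates, 48-hour exposure. At the GI50, growth is halved. TGI is the concentration that stops growth completely.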

Assays:
Test in all cases: DTP human tumour cell line panel, 48 h
EKVX NSCLC = tested on: EKVX NSCLC
LOX IMVI melanoma = tested on: LOX IMVI melanoma
A498 renal = tested on: A498 renal
UACC-257 melanoma = tested on: UACC-257 melanoma
NCI-H226 lung = tested on: NCI-H226 lung
SN12C renal = tested on: SN12C renal
NCI-H23 lung = tested on: NCI-H23 lung
A549 NSCLC = tested on: A549 NSCLC
RPMI-8226 leukemia = tested on: RPMI-8226 leukemia
T-47D breast = tested on: T-47D breast

Row | Compound | TGI (EKVX NSCLC) [µM] | TGI (LOX IMVI melanoma) [µM] | TGI (A498 renal) [µM] | TGI (UACC-257 melanoma) [µM] | TGI (NCI-H226 lung) [µM] | TGI (SN12C renal) [µM] | TGI (NCI-H23 lung) [µM] | TGI (A549 NSCLC) [µM] | TGI (RPMI-8226 leukemia) [µM] | TGI (T-47D breast) [µM] | GI50 (A498 renal) [µM]
1 | CC1=C(C#N)c2nc3ccccc3n2C(=O)C1(C)CCO (configuration not stated) | > 100 | > 100 | > 100 | > 100 | > 100 | > 100 | > 100 | > 100 | – | – | –
2 | CCOC(=O)/C=C1/C(CCCOCc2ccccc2)C2CCCC23CC2(CCN13)OCCO2 (configuration not stated) | > 100 | 37.9 | 50.3 | 53.9 | 66.7 | 86.8 | 43.8 | 63.9 | 25 | – | –
3 | Nc1ncnc2c1ccn2C/C=C/CO | > 100 | > 100 | > 100 | > 100 | – | > 100 | > 100 | > 100 | > 100 | > 100 | –
4 | Nc1c(S(=O)(=O)c2ccc(Cl)cc2)c2nc3ccccc3nc2n2ccnc12 | > 100 | – | – | > 100 | 84.1 | > 100 | > 100 | > 100 | > 100 | – | –
5 | CN1Cc2c(nc(-c3ccccc3)c[n+]2[O-])N(C)C1 | > 100 | > 100 | > 100 | > 100 | > 100 | > 100 | > 100 | > 100 | > 100 | – | –
6 | COc1ccc(CC(N)=O)cc1OC | > 1250 | > 1250 | > 1250 | > 580 | > 1250 | > 1250 | > 1250 | > 1250 | > 1250 | – | –
7 | O=C1C(=Nc2ccc(Nc3ccccc3)cc2)Oc2ccccc21 | 27.7 | 4.4 | 21 | 4.56 | 16.8 | 4.62 | 3.93 | 10.7 | – | 9.57 | –
8 | O=C(CN1C(=O)CC(c2ccccc2)(c2ccccc2)C1=O)N1CCN(CCO)CC1 | > 100 | > 100 | > 100 | > 100 | – | > 100 | > 100 | > 100 | > 100 | > 100 | –
9 | Cn1c2ccccc2c2c(=S)c3ccccc3ccc21 | > 100 | > 100 | > 100 | > 100 | > 100 | > 100 | > 100 | > 100 | – | > 100 | –
10 | CCN(CC)c1ccc(/C=C/c2ccnc3ccccc23)cc1 | > 100 | > 100 | > 100 | > 100 | – | > 100 | > 100 | > 100 | > 100 | > 100 | –
11 | Nc1ncc2c(n1)-c1ccccc1OC2N1CCCC1 (configuration not stated) | > 100 | > 100 | – | > 100 | > 100 | > 100 | > 100 | > 100 | > 100 | – | –
12 | C=C(CN(C)C)C(=O)c1ccc(C(=O)C(=C)CN(C)C)cc1 | > 100 | > 100 | > 100 | > 100 | > 100 | > 100 | > 100 | > 100 | > 100 | – | –
13 | CO/N=C(/C(=O)OC)c1ccccc1COc1ccccc1C(F)(F)F | 62.9 | – | > 100 | 88.7 | > 100 | > 100 | > 100 | > 100 | 50.3 | > 100 | –
14 | CNc1[nH]c(=S)nc2sc3c(c12)CCCC3 | > 75 | > 75 | > 75 | > 75 | > 75 | > 75 | > 75 | – | > 75 | > 75 | –
15 | O[C@H]1[C@H](O)[C@@H](O)CN2CC[C@H](O)[C@H]12 | > 100 | > 100 | > 100 | > 100 | > 100 | > 100 | > 100 | > 100 | > 100 | – | –
16 | Cc1cc(C)nc(NC(=S)Nc2ccc([N+](=O)[O-])cc2)c1 | > 100 | > 100 | > 100 | > 100 | > 100 | – | > 100 | – | > 100 | > 100 | –
17 | O=C(NCCCl)O/N=C/c1cccnc1 | > 100 | > 100 | > 100 | > 100 | > 100 | > 100 | > 100 | > 100 | > 100 | – | 78.2
18 | COc1cc(C=O)ccc1O | > 100 | > 100 | – | > 100 | > 100 | > 100 | > 100 | > 100 | > 100 | > 100 | –
19 | O=C(CNc1ccc(Cl)cc1Cl)Nn1c(-c2ccccc2)nc2ccccc2c1=O | 35.5 | 24.1 | – | 48.6 | 58.3 | 30.5 | 29.8 | > 100 | 71.3 | 38.5 | –
20 | Clc1sc(Cl)c2c1[C@@H](Cl)C[C@@H]2Br | > 100 | > 100 | – | > 100 | – | > 100 | > 100 | > 100 | – | > 100 | –
21 | CN1CCN(Cc2cc3c(nn2)-c2ccccc2C3=O)CC1 | > 100 | – | – | 37.1 | > 100 | – | > 100 | > 100 | > 100 | > 100 | –
22 | CC(C)(C)N=C(N)NC#N | > 100 | > 100 | – | > 100 | – | > 100 | > 100 | > 100 | > 100 | – | –
23 | CN1CC[C@]2(c3cccc(O)c3)CC(=O)/C(=C/c3ccccc3)[C@@H]1C2 | 20.2 | 4.71 | 17 | 11.7 | 31.9 | 13.6 | 36.8 | 13.2 | 4.84 | – | –
